Data taken from publication PMC8583042, “New Hybrid Compounds Combining Fragments of Usnic Acid and Thioether Are Inhibitors of Human Enzymes TDP1, TDP2 and PARP1” (International Journal of Molecular Sciences, 2021).

How the values were obtained:
[1] = target: T1, TDP1 (Homo sapiens, UniProt Q9NUW8); experiment: Steady-state kinetics of the TDP1 reaction (Vmax, KM, type of inhibition); assay type: biochemical; design: Vmax: unit not given here
T1 construct: made in house; host or cells: E. coli
Description: The reversible enzyme inhibitors were classified as competitive, uncompetitive, non-competitive, or mixed, depending on the binding of the enzyme, to the enzyme–substrate complex (ES) or to the enzyme–substrate–inhibitor triple complex (ESI). The enzyme could bind the inhibitor at the different steps of catalysis (before or after the substrate) and at the substrate-binding site or another site. The effect of the inhibitor on enzymatic activity can be analyzed using graphical representations of the Michaelis–Menten equation. […] TDP1 has a catalytic pocket with a narrow positively charged cleft where it binds DNA and with a relatively large cleft that contains a mixed charge distribution for the TOP1 fragment binding. It is known that TDP1 hydrolyzes the DNA–TOP1 adducts via two coordinated nucleophilic attacks of two His residues (His263 and His493) with the covalent intermediate complex formation. The enzyme reaction catalyzed by TDP1 could be inhibited in two steps: the first one is the inhibition of the TDP1 binding to the DNA substrate (the nucleophilic attack of His263). The second step is releasing TDP1 from the transition complex (nucleophilic attack by a water molecule activated by His493). Inhibition of the second step prevents the release of the DNA 3′-phosphate product from the DNA–TDP1 complex. Spinocerebellar ataxia with axonal neuropathy (SCAN1) is a neurological disease that is caused by a TDP1 His493Arg mutation. This mutation prevents the second step of hydrolysis of the intermediate complex and the enzyme remains covalently bound to DNA [47]. The uncompetitive inhibitors also prevent the second step of the reaction, stabilizing the enzyme–DNA covalent complex, which can lead to the accumulation of the single-strand breaks in the cell.
The biosensor (5′-[FAM] AAC GTC AGGGTC TTC C [BHQ]-3′) was synthesized in the Laboratory of Nucleic Acid Chemistry at the Institute of Chemical Biology and Fundamental Medicine (Novosibirsk, Russia) and was used for TDP1 enzyme activity real-time fluorescence detection. The reaction mixture (200 μL) contained a TDP1 reaction buffer (50 mM Tris-HCl, pH 8.0, 50 mM NaCl, and 7 mM β-mercaptoethanol), 50 nM oligonucleotide, varied concentrations of the tested compounds, and purified TDP1 in a final concentration 1.5 nM. The reaction mixtures were incubated at a constant temperature of 26 °C in a POLARstar OPTIMA fluorimeter (BMG LABTECH, GmbH, Ortenberg, Germany). Fluorescence intensity was measured (Ex485/Em520 nm) every 1 min for 10 min. The average values of the half maximal inhibitory concentration (IC50) were determined using an eleven-point concentration response curve and calculated using MARS Data Analysis 2.0 (BMG LABTECH). The 50% inhibitory concentration (IC50) was defined as the concentration of the compound that inhibited 50% of the enzyme activity when compared to the untreated controls. At least three independent experiments were carried out to obtain the IC50 values. To determine the kinetic parameters of the TDP1 enzymatic reaction, the apparent maximum rate of enzymatic reaction (Vmax), Michaelis constant (KM), possible inhibition mechanism, and steady-state kinetic experiments were carried out at 5 fixed concentrations of the substrate, with variation in the inhibitor concentrations. The standard reaction mixtures (200 μL) contained reaction buffer components; 50 nM, 100 nM, 200 nM, 500 nM, or 1000 nM substrate; an inhibitor; and 1.5 nM recombinant human TDP1. The initial kinetic curves were obtained in three independent experiments and statistically processed in OriginPro 8.6.0 (OriginLab, Northampton, MA, USA).
Table S25 Dependence of TDP1 reaction values V max and K M on the concentration of inhibitors
[7g], mM V max Standard Error K M Standard Error
[7h], mM V max Standard Error K M Standard Error
[10a], mM V max Standard Error K M Standard Error
[10b], mM V max Standard Error K M Standard Error

[2] = test system: HeLa cells; experiment: Cytotoxicity of the combination of 10a and topotecan on HeLa cells; assay type: cell-based, human
Description: TDP1 is able to cleave the TOP1–DNA complex, thus preventing the action of Tpc and decreasing the efficiency of this clinically used drug. The inhibition of TDP1 activity can increase the efficiency of Tpc. Next, we checked the cytotoxic effect of the combination of Tpc and examined the TDP1 inhibitors compared to Tpc alone on HeLa cells and HEK293 cells.
We observed the suppressed cell growth in the joint presence of the TDP1 inhibitor and Tpc on HeLa cells compared to Tpc alone (Figure 5). We observed the synergistic effect both when we titrated 10a with addition of fixed Tpc (1 μM or 2 μM) and vice versa when we titrated Tpc with addition of fixed 10a (5 μM). […] The CC50 value of Tpc decreased from 2 μM (only Tpc) to 0.7 μM (Tpc with 5 μM 10a).
Cytotoxicity of the compounds was examined against human cell lines HEK293A (human embryonic kidney)—WT, TDP1 deficient (Tdp1-/-), PARP1 deficient (PARP1-/-), and HeLa (cervical cancer) using an EZ4U colorimetric test (Biomedica, Vienna, Austria). The HEK293A cell line was obtained from Thermo Fisher Scientific (Waltham, MA, USA), and the HeLa cell line was obtained from the Russian Cell Culture Collection (RCCC) Institute of Cytology RAS, St. Petersburg, Russia. The cells were grown in DMEM/F12 medium (Gibco, Thermo Fisher Scientific, Waltham, MA, USA), with 1x GlutaMAX (Gibco, Thermo Fisher Scientific, Waltham, MA, USA), 50 IU/mL penicillin, 50 μg/mL streptomycin (MP Biomedicals), and in the presence of 10% fetal bovine serum (Biolot, Saint-Petersburg, Russia) in a 5% CO2 atmosphere. Cells were grown in the presence of 1% DMSO in the control wells. After the formation of a 30–50% monolayer, the tested compounds were added to the medium, and the cell culture was monitored for 3 days. The values were normalized to their own control in each case. At least three independent experiments were carried out. […] The compound concentration that caused 50% cell growth inhibition was determined using OriginPro 8.6.0 software (OriginLab, Northampton, MA, USA). […]

T1 sequence (Q9NUW8 whole entry): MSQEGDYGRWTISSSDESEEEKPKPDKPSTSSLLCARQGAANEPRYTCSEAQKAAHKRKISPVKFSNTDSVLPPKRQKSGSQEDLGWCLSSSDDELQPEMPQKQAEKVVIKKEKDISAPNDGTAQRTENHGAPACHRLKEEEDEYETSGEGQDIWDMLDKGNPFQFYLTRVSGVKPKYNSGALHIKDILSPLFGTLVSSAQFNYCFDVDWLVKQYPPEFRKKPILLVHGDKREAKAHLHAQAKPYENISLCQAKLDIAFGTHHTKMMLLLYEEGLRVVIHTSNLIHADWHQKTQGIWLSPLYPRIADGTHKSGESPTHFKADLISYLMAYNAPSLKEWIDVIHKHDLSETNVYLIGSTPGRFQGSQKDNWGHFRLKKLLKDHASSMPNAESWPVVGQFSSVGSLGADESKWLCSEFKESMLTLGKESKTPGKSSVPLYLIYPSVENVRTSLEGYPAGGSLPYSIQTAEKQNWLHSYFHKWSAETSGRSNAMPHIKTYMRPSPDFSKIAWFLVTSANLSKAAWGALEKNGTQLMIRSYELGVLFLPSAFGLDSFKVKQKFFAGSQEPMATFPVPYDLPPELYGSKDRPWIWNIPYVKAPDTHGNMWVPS

CC(=O)C1=C(O)C=C2Oc3c(C(=O)C[S+]([O-])c4nc5ccccc5s4)c(O)c(C)c(O)c3[C@@]2(C)C1=O (stereo partly drawn) [10a, (2R)-4-acetyl-10-[2-(1,3-benzothiazole-2-sulfinyl)acetyl]-5,11,13-trihydroxy-2,12-dimethyl-8-oxatricyclo[7.4.0.0^2,7]trideca-1(13),4,6,9,11-pentaen-3-one]
Vmax ([1]; inhibitor 0.8 mM (so in the source)): 27.8 | Vmax ([1]; inhibitor 1.6 mM (so in the source)): 26.5 | Vmax ([1]; inhibitor 3.2 mM (so in the source)): 25.1 | Vmax ([1]; inhibitor 6.4 mM (so in the source)): 21.3 | Type of inhibition of TDP1 enzyme reaction ([1]; steady-state conditions, fall in both Vmax and KM with increasing inhibitor): uncompetitive | Synergy with Tpc (in words) ([2]; HeLa cells): promising synergy | CC50 ([2]; Homo sapiens, HeLa, 10a titrated with fixed 2 μM Tpc, read-out: CC50 of 10a with Tpc): 3000 nM
